Measurements: patent US20220347085A1, “REPELLENT COMPOSITION AND USES” (Université Bourgogne, priority 2019, published 2022)

Assays:
Type in all cases: in vivo
Drosophila suzukii [1] = test: Test in a box (repellent effect), Drosophila suzukii; settings: 2% in solvent, 1250 cm^3 box
Description: 2. Tests “in a Box” (Repellent Effect)
The sensitivity of the drosophilae was evaluated over a period of between 0 minutes and 24 hours, according to the conditions (see results) in closed and transparent boxes of 1250 cm^3.
An odor source, i.e. a composition comprising butyric acid or propionic acid in paraffin oil, was deposited on a filter paper at the base of a 50 mm petri dish. The petri dish is introduced into a test box and covered with a gauze Securimed M8202 sterile gauze pad) in order to prevent the flies from getting stuck on the oily odorous compound.
The concentrations used were 2%, 6% or 20% propionic acid.
A second Petri dish containing 5 to 6 grams of synthetic food used for breeding drosophilae in laboratories was placed in the test box, i.e. 6.5% maize flour, 6.5% (v/v) yeast extract, 1% (v/v) agar-agar, and 3% (v/v) of a 0.1% (v/v) antifungal solution (Tegosept (Apex)) in ethanol at 95%. This latter provides the water and/or the food which the flies needed during the test, and eliminated the possibility of an event due to dehydration of the individuals tested.
Drosophila melanogaster or suzukii were then introduced by groups into the test box, and moved there freely over time. Their behavior in the presence of a composition as mentioned above was observed and photographed (Apple iPhone 6S).

Drosophila suzukii [2] = test: Courtship of male Drosophila suzukii towards females, olfactory exposure; settings: compared with solvent alone, 10 min observation
Description: Drosophilae (Drosophila melanogaster) aged from 3 to 9 days are used for the courtship tests according to the method described above.
Naive males were isolated in tubes, individually, upon emerging from their puparium.
The females were selected to be virgin and were stored in tubes of 10 individuals. These tubes were placed in an inclined manner in incubators, for which a temperature of 25° C. was kept constant. A 12 hour-12 hour day/night cycle was applied. The courtship tests were carried out in the morning, between 1 and 3 hours after the start of the day cycle.
At the time of the test, a 6 mm disk of filter paper (Whatman, filter paper 42) was deposited per alveolus of the device for studying the courtship behavior. Each alveolus was cylindrical, transparent and closed, and of a volume of 1.52 or 0.9 cm^3. FIG. 16 is a schematic representation of an alveolus of the device used.
The paper was then soaked in 10 μl of a composition of 0.1%, 0.5% or 1% propionic acid, or 0.1%, 0.5% or 1% butyric acid, or a mixture comprising 0.1% propionic acid and 0.1% butyric acid, 0.25% propionic acid and 0.25% butyric acid or 0.5% propionic acid and 0.5% butyric acid. A gauze (netting) makes it possible to physically isolate the drosophilae from the odor. 6 pairs (one per alveolus) were observed independently. Each pair was made up of one male and one intact female, each originating from the tubes mentioned above.
The behavior was filmed for 10 minutes, under white light, using a Sony HDR-XR550 camera. Each film was recorded and then analyzed. For each concentration of the compositions used, the number of pairs of flies was, respectively, 33, 39, 27, 38, 33, 27, 12, 6 and 12.
A negative control was carried out comprising only the solvent, i.e. paraffin oil, in order to verify the absence of an effect of the solvent on the flies.
A courtship percentage was calculated, and represents the time during which the male courts the female during the 10 minutes of observation (recording). The courtship of the Drosophila suzukii is decomposed into recognizable stereotypical events, and described precisely in scientific literature (Revadi S et al., Insects 2015 [4]). Statistical tests, i.e. a Kruskal-Wallis test followed by a post-hoc Dunn's Multiple Comparison Test, were carried out (GraphFad, Prism6) in order to evaluate the influence, on the behavior, of the composition in which the paper is soaked; this involving a release of volatile compounds and an odor perceived by the drosophilae.

Drosophila melanogaster [3] = test: Test of the reversible effect (waking from anesthesia), Drosophila melanogaster; settings: after 10 minutes at 2%, then placed in empty device
Description: Test of the Reversible Effect.
The devices used were those described for the study of the anesthesia such as described in example 2 above. The application conditions for the propanoic acid or the butyric acid were similar to those of the anesthesia test described in example 2 above. The flies were brought into the presence of 2% propanoic acid or 2% butyric acid for 10 minutes. At the end of 10 minutes of observation of the anesthesia (example 2 above), the flies were removed from the device and placed into another device which was identical but “empty”, i.e. without solvent or odor (odor=2% propanoic acid in the solvent or 2% butyric acid in the solvent, respectively). For each empty device, the total number of flies introduced and observed were 20 males and 30 females previously exposed to 2% propanoic acid and removed from this anesthetizing environment, and 6 males and 7 females previously exposed to 2% butyric acid and removed from this anesthetizing environment.
The flies were considered as woken from the anesthesia when they got back up on their legs and moved in the device.
The time required for waking the flies following their anesthesia was then measured.

Drosophila melanogaster [4] = test: Anesthesia test, Drosophila melanogaster; settings: 2% in paraffin oil
Description: The devices used were similar to the devices for studying the courtship (example 1 above), except for the volume of the space into which the files were introduced, which was 45.24 or 22.62 cm^3. 9 discs of filter paper (Whatman, filter paper 42), each soaked in 10 μl of a composition comprising butyric acid and/or propionic acid and/or a derivative of propionic acid diluted in paraffin oil were deposited in the device. The different compositions used comprised, respectively, 2% propionic acid or 2% butyric acid or 5% ethyl propanoate or 10% ethyl propanoate or 30% ethyl propanoate. For each composition, the number of flies was, respectively, 30 and 24 males, 30 and 11 females for Drosophila melanogaster, and 24, 16 and 4 males, 28, 26, 6, 5 and 4 females for Drosophila suzukii. In order to avoid any contact of the flies with the soaked disks of paper, a gauze (netting) was arranged above said papers. The drosophilae could move freely on said gauze. The quantity of compound, butyric acid or propionic acid, or of ethyl propanoate (odor) volatilized in the behavior chamber was equivalent to that of the device used for the courtship. Likewise, the flies were never in direct contact with the composition (no taste perception), only with the volatile particles (olfactory perception). The flies tested were introduced simultaneously, by group, into the enclosure. Their behavior was filed for 10 minutes, and a time required for leading to anesthesia was calculated over this period, depending on the concentration of butyric acid or propionic acid or ethyl propanoate used. The flies were considered anesthetized when they stopped moving and fell on their side.

| Structure (SMILES) | repellent behavior (location of flies relative to odor source) (Drosophila suzukii [1]) | anesthesia at a distance in the box (Drosophila suzukii [1]; males and females) | time until death in the box (Drosophila suzukii [1]; males and females) [h] | proportion of courtship of males towards females (Drosophila suzukii [2]; 0.5% (v/v) in paraffin oil) | proportion of courtship of males towards females (Drosophila suzukii [2]; 1% (v/v) in paraffin oil) | time required to wake up fully from the anesthesia (Drosophila melanogaster [3]; females) [min] | time required to wake up fully from the anesthesia (Drosophila melanogaster [3]; males) [min] | time elapsed leading to anesthesia (Drosophila melanogaster [4]; female flies) | time elapsed leading to anesthesia (Drosophila melanogaster [4]; male flies) |
| --- | --- | --- | --- | --- | --- | --- | --- | --- | --- |
| CCCC(=O)O [butyric acid] | remained away from the filter soaked in butyric acid | anesthetized | 20 | significantly reduced | significantly reduced | 4.5 | 6 | approximately 17 minutes | approximately 5 minutes |
| CCC(=O)O [propionic acid] | remained preferably away from said odor | anesthetized in the hour which followed | – | significantly reduced | significantly reduced | 9 | 23 | approximately 5 minutes | approximately 3 minutes |
